Measured values as given in ChEMBL document CHEMBL5543097, “Synthesis and structure-activity relationships of novel 14-membered 2-fluoro ketolides with structural modification at the C11 position” (Eur J Med Chem, 2024).
In brackets after ≈: the same amount, converted by molar mass.

Columns and labels:
Moraxella catarrhalis [1] = test: Antibacterial activity against Moraxella catarrhalis BCA 19-31 assessed as inhibition of bacterial growth incubated for 24 hrs by CLSI based broth microdilution method; format: functional; details: BCA 19-31, 24 h
Haemophilus influenzae [2] = test: Antibacterial activity against Haemophilus influenzae HIN 19-15 assessed as inhibition of bacterial growth incubated for 20 to 24 hrs by CLSI based broth microdilution method; format: functional; details: time 20-24 hrs
Streptococcus pneumoniae [3] = test: Antibacterial activity against erythromycin-resistant Streptococcus pneumoniae SPN19-8 assessed as inhibition of visible bacterial growth incubated for 18 hrs by broth microdilution method; format: functional
Streptococcus agalactiae [4] = test: Antibacterial activity against erythromycin-resistant Streptococcus agalactiae 19-8 assessed as inhibition of visible bacterial growth incubated for 18 hrs by broth microdilution method; format: functional
[5] = system: Staphylococcus epidermidis; test: Antibacterial activity against erythromycin-resistant Staphylococcus epidermidis 19-9 assessed as inhibition of visible bacterial growth incubated for 18 hrs by broth microdilution method; format: functional
[6] = system: Staphylococcus epidermidis; test: Antibacterial activity against erythromycin-resistant Staphylococcus epidermidis 19-5 assessed as inhibition of visible bacterial growth incubated for 18 hrs by broth microdilution method; format: functional
Streptococcus agalactiae [7] = test: Antibacterial activity against erythromycin-resistant Streptococcus agalactiae 19-9 assessed as inhibition of visible bacterial growth incubated for 18 hrs by broth microdilution method; format: functional
[8] = system: Staphylococcus epidermidis; test: Antibacterial activity against erythromycin-resistant Staphylococcus epidermidis 19-8 assessed as inhibition of visible bacterial growth incubated for 18 hrs by broth microdilution method; format: functional
Haemophilus influenzae [9] = test: Antibacterial activity against Haemophilus influenzae HIN 19-18 assessed as inhibition of bacterial growth incubated for 20 to 24 hrs by CLSI based broth microdilution method; format: functional; details: HIN 19-18, time 20-24 hrs
Streptococcus pneumoniae [10] = test: Antibacterial activity against erythromycin-resistant Streptococcus pneumoniae SPN19-13 assessed as inhibition of visible bacterial growth incubated for 18 hrs by broth microdilution method; format: functional
Streptococcus pneumoniae [11] = test: Antibacterial activity against erythromycin-resistant Streptococcus pneumoniae SPN19-14 assessed as inhibition of visible bacterial growth incubated for 18 hrs by broth microdilution method; format: functional
[12] = system: Staphylococcus epidermidis; test: Antibacterial activity against erythromycin-resistant Staphylococcus epidermidis 19-4 assessed as inhibition of visible bacterial growth incubated for 18 hrs by broth microdilution method; format: functional
[13] = Cytotoxicity against mouse AML12 cells assessed as reduction in cell viability incubated for 48 hrs by MTT assay; format: toxicity, cell-based
Haemophilus influenzae [14] = test: Antibacterial activity against Haemophilus influenzae HIN 20-18 assessed as inhibition of bacterial growth incubated for 20 to 24 hrs by CLSI based broth microdilution method; format: functional; details: time 20-24 hrs
Moraxella catarrhalis [15] = test: Antibacterial activity against Moraxella catarrhalis BCA 19-5 assessed as inhibition of bacterial growth incubated for 24 hrs by CLSI based broth microdilution method; format: functional; details: Moraxella catarrhalis, BCA 19-5, 24 h, read-out: MIC
[16] = system: Staphylococcus epidermidis; test: Antibacterial activity against erythromycin-resistant Staphylococcus epidermidis 19-11 assessed as inhibition of visible bacterial growth incubated for 18 hrs by broth microdilution method; format: functional
Streptococcus pyogenes = test: Antibacterial activity against erythromycin-resistant Streptococcus pyogenes ATCC 19615 assessed as inhibition of visible bacterial growth incubated for 18 hrs by broth microdilution method; format: functional
Moraxella catarrhalis [17] = test: Antibacterial activity against Moraxella catarrhalis BCA 19-6 assessed as inhibition of bacterial growth incubated for 24 hrs by CLSI based broth microdilution method; format: functional; details: Moraxella catarrhalis, BCA 19-6, 24 h, read-out: MIC
[18] = system: Staphylococcus epidermidis; test: Antibacterial activity against erythromycin-resistant Staphylococcus epidermidis 19-6 assessed as inhibition of visible bacterial growth incubated for 18 hrs by broth microdilution method; format: functional

SMILES | MIC (Moraxella catarrhalis [1]) [µg/mL] | MIC (Haemophilus influenzae [2]) [µg/mL] | MIC (Streptococcus pneumoniae [3]) [µg/mL] | MIC (Streptococcus agalactiae [4]) [µg/mL] | MIC [5] [µg/mL] | MIC [6] [µg/mL] | MIC (Streptococcus agalactiae [7]) [µg/mL] | MIC [8] [µg/mL] | MIC (Haemophilus influenzae [9]) [µg/mL] | MIC (Streptococcus pneumoniae [10]) [µg/mL] | MIC (Streptococcus pneumoniae [11]) [µg/mL] | MIC [12] [µg/mL] | CC50 at 48 h [13] [µM] | MIC (Haemophilus influenzae [14]) [µg/mL] | MIC (Moraxella catarrhalis [15]) [µg/mL] | MIC [16] [µg/mL] | MIC (Streptococcus pyogenes) [µg/mL] | MIC (Moraxella catarrhalis [17]) [µg/mL] | MIC [18] [µg/mL]
CC[C@H]1OC(=O)[C@H](C)[C@@H](O[C@H]2C[C@@](C)(OC)[C@@H](O)[C@H](C)O2)[C@H](C)[C@@H](O[C@@H]2O[C@H](C)C[C@H](N(C)C)[C@H]2O)[C@](C)(O)C[C@@H](C)CN(C)[C@H](C)[C@@H](O)[C@]1(C)O [AZITHROMYCIN] | 0.125 (≈ 0.167 µM) | 4 (≈ 5.34 µM) | 0.25 (≈ 0.334 µM) | 0.5 (≈ 0.668 µM) | > 64 | 0.5 (≈ 0.668 µM) | 0.125 (≈ 0.167 µM) | 0.25 (≈ 0.334 µM) | 4 (≈ 5.34 µM) | > 64 | 4 (≈ 5.34 µM) | > 64 | > 100 | > 16 | > 64 | 0.25 (≈ 0.334 µM) | 0.25 (≈ 0.334 µM) | > 64 | 0.5 (≈ 0.668 µM)
CCOc1ccc(NC(=O)OCCCN2C(=O)O[C@]3(C)[C@@H](CC)OC(=O)[C@@](C)(F)C(=O)[C@H](C)[C@@H](O[C@@H]4O[C@H](C)C[C@H](N(C)C)[C@H]4O)[C@](C)(OC)C[C@@H](C)C(=O)[C@H](C)[C@@H]23)cc1 | 0.5 (≈ 0.587 µM) | > 16 | 0.25 (≈ 0.293 µM) | – | 0.5 (≈ 0.587 µM) | 0.06 (≈ 0.0704 µM) | 2 (≈ 2.35 µM) | 0.25 (≈ 0.293 µM) | 16 (≈ 18.8 µM) | 0.5 (≈ 0.587 µM) | 0.5 (≈ 0.587 µM) | 0.5 (≈ 0.587 µM) | 36.5 | > 16 | 0.5 (≈ 0.587 µM) | 0.125 (≈ 0.147 µM) | < 0.03 | 1 (≈ 1.17 µM) | 0.25 (≈ 0.293 µM)
CC[C@H]1OC(=O)[C@@](C)(F)C(=O)[C@H](C)[C@@H](O[C@@H]2O[C@H](C)C[C@H](N(C)C)[C@H]2O)[C@](C)(OC)C[C@@H](C)C(=O)[C@H](C)[C@H]2N(CCCOC(=O)Nc3ccccc3Cl)C(=O)O[C@]12C | 1.12 (≈ 1.34 µM) | 8 (≈ 9.5 µM) | 0.25 (≈ 0.297 µM) | – | 0.25 (≈ 0.297 µM) | < 0.03 | 1 (≈ 1.19 µM) | 0.125 (≈ 0.148 µM) | 8 (≈ 9.5 µM) | 0.25 (≈ 0.297 µM) | 0.25 (≈ 0.297 µM) | 0.06 (≈ 0.0712 µM) | 36.2 | 16 (≈ 19 µM) | 0.25 (≈ 0.297 µM) | < 0.06 | < 0.03 | 0.5 (≈ 0.594 µM) | 0.125 (≈ 0.148 µM)
CC[C@H]1OC(=O)[C@@](C)(F)C(=O)[C@H](C)[C@@H](O[C@@H]2O[C@H](C)C[C@H](N(C)C)[C@H]2O)[C@](C)(OC)C[C@@H](C)C(=O)[C@H](C)[C@H]2N(CCCOC(=O)Nc3ccc(Cl)cc3C)C(=O)O[C@]12C | 0.125 (≈ 0.146 µM) | 8 (≈ 9.34 µM) | 0.25 (≈ 0.292 µM) | – | < 0.03 | < 0.03 | 0.5 (≈ 0.584 µM) | 0.125 (≈ 0.146 µM) | 4 (≈ 4.67 µM) | 0.125 (≈ 0.146 µM) | 0.125 (≈ 0.146 µM) | 0.03 (≈ 0.035 µM) | 12.8 | 16 (≈ 18.7 µM) | 0.125 (≈ 0.146 µM) | 0.06 (≈ 0.0701 µM) | < 0.03 | 0.25 (≈ 0.292 µM) | 0.125 (≈ 0.146 µM)
CC[C@H]1OC(=O)[C@@](C)(F)C(=O)[C@H](C)[C@@H](O[C@@H]2O[C@H](C)C[C@H](N(C)C)[C@H]2O)[C@](C)(OC)C[C@@H](C)C(=O)[C@H](C)[C@H]2N(CCCOC(=O)Nc3ccc(-c4ncccn4)cc3)C(=O)O[C@]12C | 0.25 (≈ 0.282 µM) | 14 (≈ 15.8 µM) | 0.25 (≈ 0.282 µM) | – | 0.125 (≈ 0.141 µM) | < 0.03 | 4 (≈ 4.51 µM) | 0.125 (≈ 0.141 µM) | 16 (≈ 18.1 µM) | 0.5 (≈ 0.564 µM) | 0.25 (≈ 0.282 µM) | 0.06 (≈ 0.0677 µM) | 20.4 | > 16 | 0.25 (≈ 0.282 µM) | < 0.03 | < 0.03 | 45 (≈ 50.8 µM) | 0.125 (≈ 0.141 µM)
CC[C@H]1OC(=O)[C@@](C)(F)C(=O)[C@H](C)[C@@H](O[C@@H]2O[C@H](C)C[C@H](N(C)C)[C@H]2O)[C@](C)(OC)C[C@@H](C)C(=O)[C@H](C)[C@H]2N(CCCOC(=O)Nc3cccc(F)c3C)C(=O)O[C@]12C | 0.06 (≈ 0.0714 µM) | 8 (≈ 9.52 µM) | 0.25 (≈ 0.298 µM) | – | 0.5 (≈ 0.595 µM) | < 0.03 | 0.5 (≈ 0.595 µM) | 0.06 (≈ 0.0714 µM) | 4 (≈ 4.76 µM) | 0.125 (≈ 0.149 µM) | 0.125 (≈ 0.149 µM) | 0.06 (≈ 0.0714 µM) | 36.7 | 16 (≈ 19 µM) | 0.125 (≈ 0.149 µM) | < 0.03 | < 0.03 | 0.45 (≈ 0.536 µM) | 0.125 (≈ 0.149 µM)
